The source of these data is ChEMBL document CHEMBL3045655, “Use of structure-based virtual screening in the investigation of novel human sialidase inhibitors” (Med Chem Res, 2010).

Active and inactive are the calls of the source. No cut-off for these calls is given here.

Experiment [1] addresses Sialidase-2 (Homo sapiens) (UniProt Q9Y3R4). As to conditions: HEK293, 1 mM.
Description: Inhibition of Homo sapiens (human) NEU2 expressed in HEK293 cells using 4MU-NeuAc as substrate at 1 mM after 10 to 30 min by fluorometric analysis
Experiment [2] deals with Sialidase-1 (Homo sapiens) (UniProt Q99519). Description: Inhibition of Homo sapiens (human) NEU1 expressed in HEK293 cells using 4MU-NeuAc as substrate at 1 mM after 10 to 30 min by fluorometric analysis. In kind it is cell-based.
The next experiment concerns the target T1, Sialidase-4 (Homo sapiens, UniProt Q8WWR8).
T1 sequence (Q8WWR8 whole entry): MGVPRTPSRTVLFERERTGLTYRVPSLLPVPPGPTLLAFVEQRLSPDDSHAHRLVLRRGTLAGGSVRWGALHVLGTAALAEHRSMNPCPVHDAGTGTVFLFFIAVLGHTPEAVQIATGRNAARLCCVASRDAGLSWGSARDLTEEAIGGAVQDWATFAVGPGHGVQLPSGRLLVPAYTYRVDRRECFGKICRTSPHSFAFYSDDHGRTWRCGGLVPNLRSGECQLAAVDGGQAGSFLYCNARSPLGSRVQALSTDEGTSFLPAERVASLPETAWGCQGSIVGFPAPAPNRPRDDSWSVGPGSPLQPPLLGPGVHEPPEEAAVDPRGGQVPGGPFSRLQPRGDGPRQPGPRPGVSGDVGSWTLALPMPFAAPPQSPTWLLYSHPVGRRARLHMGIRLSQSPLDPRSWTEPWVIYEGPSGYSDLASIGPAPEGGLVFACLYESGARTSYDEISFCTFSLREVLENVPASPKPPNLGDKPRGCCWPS
Description: Inhibition of Homo sapiens (human) NEU4 expressed in HEK293 cells using 4MU-NeuAc as substrate after 10 to 30 min by fluorometric analysis. In kind it is cell-based.

The target of a further experiment is T2, Sialidase-3 (Homo sapiens, UniProt Q9UQ49).
T2 sequence (Q9UQ49 whole entry): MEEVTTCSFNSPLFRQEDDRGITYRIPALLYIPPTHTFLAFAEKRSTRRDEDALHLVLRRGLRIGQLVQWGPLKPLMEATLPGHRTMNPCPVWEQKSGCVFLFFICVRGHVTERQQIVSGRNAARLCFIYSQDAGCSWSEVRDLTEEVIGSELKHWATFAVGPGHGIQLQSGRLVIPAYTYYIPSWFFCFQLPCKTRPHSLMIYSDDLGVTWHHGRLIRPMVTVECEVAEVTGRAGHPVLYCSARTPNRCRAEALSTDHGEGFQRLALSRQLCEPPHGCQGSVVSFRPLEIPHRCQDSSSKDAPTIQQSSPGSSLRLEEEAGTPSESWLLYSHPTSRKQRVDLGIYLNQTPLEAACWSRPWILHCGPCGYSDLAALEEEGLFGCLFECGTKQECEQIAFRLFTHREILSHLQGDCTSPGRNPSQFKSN
Description: Inhibition of Homo sapiens (human) NEU3 expressed in HEK293 cells using mixed ganglioside as substrate after 10 to 30 min by fluorometric analysis. It is filed as cell-based.

Experiment [3] deals with T3, Sialidase-4 (Homo sapiens) (UniProt Q8WWR8).
T3 sequence (whole entry): T1 sequence (Q8WWR8 whole entry)
Description: Inhibition of Homo sapiens (human) NEU4 expressed in HEK293 cells using 4MU-NeuAc as substrate at 1 mM after 10 to 30 min by fluorometric analysis.

For experiment [4], the target named is T4, Sialidase-3 (Homo sapiens) (UniProt Q9UQ49).
T4 sequence (whole entry): T2 sequence (Q9UQ49 whole entry)
Description: Inhibition of Homo sapiens (human) NEU3 expressed in HEK293 cells using mixed ganglioside as substrate at 1 mM after 10 to 30 min by fluorometric analysis. In kind it is cell-based.

Sialidase-2 (Homo sapiens), sequence (Q9Y3R4 whole entry): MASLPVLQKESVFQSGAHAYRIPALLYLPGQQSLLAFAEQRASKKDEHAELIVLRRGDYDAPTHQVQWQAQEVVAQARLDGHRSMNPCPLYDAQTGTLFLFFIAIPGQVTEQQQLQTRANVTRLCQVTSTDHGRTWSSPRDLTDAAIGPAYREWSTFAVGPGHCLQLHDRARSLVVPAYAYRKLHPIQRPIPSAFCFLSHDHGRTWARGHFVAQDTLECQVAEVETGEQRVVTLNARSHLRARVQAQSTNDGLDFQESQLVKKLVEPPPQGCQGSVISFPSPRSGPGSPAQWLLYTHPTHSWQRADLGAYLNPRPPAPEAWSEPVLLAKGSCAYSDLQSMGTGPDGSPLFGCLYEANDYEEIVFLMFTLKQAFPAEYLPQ

Regarding `O=C(O)c1oc(C(=O)O)c(OCc2ccccc2)c1OCc1ccccc1`, the inhibition in experiment [1] amounted to 40%; in experiment [2], 7%; in experiment [3], 56%; in experiment [4] it was 56%. The IC50 at Sialidase-4 was 670 µM; on Sialidase-3 it was 920 µM.
Regarding `CC(=O)Nc1cc(F)c(C(=O)O)cc1NC(=O)c1ccc(-c2ccccc2)cc1`, in experiment [2], the inhibition result is “inactive”. For the same molecule, the IC50 against Sialidase-4 and on Sialidase-3 was above 5000 µM throughout.
In the case of `CC(=O)N[C@H]1[C@H]([C@@H](O)[C@@H](O)CO)OC(C(=O)O)=C[C@@H]1O`, at Sialidase-3, half-maximal inhibition (IC50) was put at 60 µM.
